The values below come from US20240124465A1, “MOLECULES AND METHODS RELATED TO TREATMENT OF DISORDERS ASSOCIATED WITH JAK-2 SIGNALING DYSFUNCTION” (ST. JUDE CHILDREN'S RESEARCH HOSPITAL, priority 2020, published 2024).

Assay type in all cases: cell-based
The test system of assay [1] is JAK2. The assay is described as follows: Western blot assay, JAK2 protein degradation. The settings on record: MHH-CALL-4 cells, vehicle control = 100%. A digest of the protocol:
(§1)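 MHH-CALL-4 cells lysed in RIPA with protease inhibitors; 10-20 μg total protein per lane run on 4%-12% Bis-Tris gels and immunoblotted with fluorescence imaging. Target signal normalized to ACBT and expressed relative to vehicle control set at 100%.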

In assay [2] the target is T1, JAK3 (Homo sapiens, UniProt P52333).
T1 construct: endogenous in cells; host or cells: MHH-CALL-4
T1 sequence (P52333 1-1124): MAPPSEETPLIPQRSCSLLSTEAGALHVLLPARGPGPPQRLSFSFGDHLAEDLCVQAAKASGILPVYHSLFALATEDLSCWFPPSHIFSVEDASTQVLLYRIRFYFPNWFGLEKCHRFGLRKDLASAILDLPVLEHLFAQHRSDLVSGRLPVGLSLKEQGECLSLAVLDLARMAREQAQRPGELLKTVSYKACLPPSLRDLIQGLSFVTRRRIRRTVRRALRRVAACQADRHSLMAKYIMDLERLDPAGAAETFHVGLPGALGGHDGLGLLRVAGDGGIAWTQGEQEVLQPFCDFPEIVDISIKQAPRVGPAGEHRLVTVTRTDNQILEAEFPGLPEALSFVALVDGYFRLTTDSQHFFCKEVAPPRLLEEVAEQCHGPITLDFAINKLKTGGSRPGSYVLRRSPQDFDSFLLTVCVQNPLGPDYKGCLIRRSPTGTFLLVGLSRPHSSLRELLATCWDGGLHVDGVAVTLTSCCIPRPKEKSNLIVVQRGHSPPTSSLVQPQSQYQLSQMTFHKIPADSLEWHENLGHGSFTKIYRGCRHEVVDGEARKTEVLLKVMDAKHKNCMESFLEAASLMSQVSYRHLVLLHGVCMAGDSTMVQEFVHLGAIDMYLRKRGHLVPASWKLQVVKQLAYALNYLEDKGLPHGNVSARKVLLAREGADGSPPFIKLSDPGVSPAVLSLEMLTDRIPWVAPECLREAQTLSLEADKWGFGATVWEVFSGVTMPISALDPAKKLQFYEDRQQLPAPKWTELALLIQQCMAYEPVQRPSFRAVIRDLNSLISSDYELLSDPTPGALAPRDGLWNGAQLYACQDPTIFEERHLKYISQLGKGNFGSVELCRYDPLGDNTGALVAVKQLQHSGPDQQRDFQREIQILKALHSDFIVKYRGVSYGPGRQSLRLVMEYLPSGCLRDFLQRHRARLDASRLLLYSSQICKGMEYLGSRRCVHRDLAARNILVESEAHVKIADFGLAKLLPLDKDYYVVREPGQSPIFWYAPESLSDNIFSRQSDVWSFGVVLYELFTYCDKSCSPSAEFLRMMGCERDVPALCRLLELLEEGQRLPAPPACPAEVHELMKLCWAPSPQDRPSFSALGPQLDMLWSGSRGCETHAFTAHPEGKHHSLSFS
Description: Western blot assay, JAK3 protein degradation. The settings on record: MHHCALL4; 100 nM, 24 h; MHH-CALL-4 cells; vehicle control = 100%; read-out: Target Protein Degradation (% remaining at 100 nM, 24 h) JAK3. A digest of the protocol: as §1
Background: Immunoblotting shows a protein as a band on a membrane.

The target of assay [3] is T2, TYK2 (Homo sapiens, UniProt P29597).
T2 construct: endogenous in cells; host or cells: MHH-CALL-4
T2 sequence (P29597 whole entry): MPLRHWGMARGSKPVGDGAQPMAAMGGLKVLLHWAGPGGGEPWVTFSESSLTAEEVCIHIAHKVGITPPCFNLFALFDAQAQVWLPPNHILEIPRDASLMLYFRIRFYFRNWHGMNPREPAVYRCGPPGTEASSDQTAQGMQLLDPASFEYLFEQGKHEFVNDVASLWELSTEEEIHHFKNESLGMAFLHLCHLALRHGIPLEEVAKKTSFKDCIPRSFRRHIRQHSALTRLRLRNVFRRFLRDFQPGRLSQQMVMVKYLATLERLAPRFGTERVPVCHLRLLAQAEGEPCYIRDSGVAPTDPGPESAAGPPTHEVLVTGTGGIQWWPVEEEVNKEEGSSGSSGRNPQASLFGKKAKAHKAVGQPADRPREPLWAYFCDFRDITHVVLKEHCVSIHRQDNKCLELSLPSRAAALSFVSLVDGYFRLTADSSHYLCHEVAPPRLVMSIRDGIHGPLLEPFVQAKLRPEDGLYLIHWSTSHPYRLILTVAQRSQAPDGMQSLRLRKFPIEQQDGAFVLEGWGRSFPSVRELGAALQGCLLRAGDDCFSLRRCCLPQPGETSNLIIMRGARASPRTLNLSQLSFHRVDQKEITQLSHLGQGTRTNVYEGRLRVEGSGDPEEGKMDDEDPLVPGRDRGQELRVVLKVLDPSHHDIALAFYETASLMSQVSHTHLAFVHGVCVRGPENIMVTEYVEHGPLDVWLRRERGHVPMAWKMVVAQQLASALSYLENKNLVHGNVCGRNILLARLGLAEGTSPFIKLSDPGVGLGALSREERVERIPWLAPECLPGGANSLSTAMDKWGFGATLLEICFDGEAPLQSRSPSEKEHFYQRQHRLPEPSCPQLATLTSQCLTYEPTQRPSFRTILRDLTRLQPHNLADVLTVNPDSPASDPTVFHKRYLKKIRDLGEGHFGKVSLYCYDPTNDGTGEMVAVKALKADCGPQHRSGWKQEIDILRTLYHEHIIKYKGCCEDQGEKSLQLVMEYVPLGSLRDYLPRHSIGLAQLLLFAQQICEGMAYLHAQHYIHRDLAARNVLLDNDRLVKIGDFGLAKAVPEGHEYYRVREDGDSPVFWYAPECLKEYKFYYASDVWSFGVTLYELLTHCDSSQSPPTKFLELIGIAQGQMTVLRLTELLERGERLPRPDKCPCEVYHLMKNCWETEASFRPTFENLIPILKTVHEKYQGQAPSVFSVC
The assay is described as follows: Western blot assay, TYK2 protein degradation. As to conditions: MHH-CALL-4 cells, vehicle control = 100%. The method, then:
(§2) Western blot assay: MHH-CALL-4 Cells were washed twice with ice-cold PBS and lysed in RIPA lysis buffer (Sigma) freshly supplemented with Halt™ Protease Inhibitor Cocktail (ThermoFisher) for 15 minutes on ice. The cell pellet was removed by centrifugation at 13,000 g at 4° C. for 15 minutes. Protein concentration was measured by BCA assay (Thermo Fisher Scientific). Proteins were denatured in NuPAGE LDS 4× sample buffer supplemented with reducing agents (Invitrogen). Typically, 10-20 μg of total protein was loaded per lane on a 4%-12% NUPAGE Bis-Tris gradient gel (Invitrogen) and analyzed by standard immunoblotting and imaged using Li—COR Odyssey CLx (LI-COR Biotechnology, Lincoln, NE). To access the protein degradation, the signal of target protein was normalized by the signal of ACBT and the signal of vehicle control was set as 100%. Primary antibodies used were: JAK1 (Cell Signaling #3332S), JAK2 (#3230S), JAK3 (#8827S), TYK2 (#9312S), GSPT1 (#14980S), CRBN (#71810S), IKZF1 (Santa Cruz Biotechnology, SC-398265) and ACBT (Santa Cruz Biotechnology, SC-47778).

Assay [4] relates to MHH-CALL-4 cells. Description: Cytotoxicity assay (resazurin, 72 hours). The settings on record: for EC50: MHHCALL4, resazurin; for AUC: area under the dose-response curve. On the set-up: AUC: unit not given beside the values. A digest of the protocol: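 Cells grown in RPMI1640 with 10% FBS, 2×10⁵ per well, were exposed to pin-transferred compounds in triplicate for 72 h at 37 °C, 5% CO2. Viability was read after 4 h resazurin incubation. Dose-response AUC was calculated per compound; selected data were fitted by non-linear regression.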
For orientation: The colour change of resazurin is a common sign of viable cells or microbes.

The target in assay [5] is T3, IKZF1 (Homo sapiens, UniProt Q13422).
T3 construct: endogenous in cells; host or cells: MHH-CALL-4
T3 sequence (Q13422 whole entry): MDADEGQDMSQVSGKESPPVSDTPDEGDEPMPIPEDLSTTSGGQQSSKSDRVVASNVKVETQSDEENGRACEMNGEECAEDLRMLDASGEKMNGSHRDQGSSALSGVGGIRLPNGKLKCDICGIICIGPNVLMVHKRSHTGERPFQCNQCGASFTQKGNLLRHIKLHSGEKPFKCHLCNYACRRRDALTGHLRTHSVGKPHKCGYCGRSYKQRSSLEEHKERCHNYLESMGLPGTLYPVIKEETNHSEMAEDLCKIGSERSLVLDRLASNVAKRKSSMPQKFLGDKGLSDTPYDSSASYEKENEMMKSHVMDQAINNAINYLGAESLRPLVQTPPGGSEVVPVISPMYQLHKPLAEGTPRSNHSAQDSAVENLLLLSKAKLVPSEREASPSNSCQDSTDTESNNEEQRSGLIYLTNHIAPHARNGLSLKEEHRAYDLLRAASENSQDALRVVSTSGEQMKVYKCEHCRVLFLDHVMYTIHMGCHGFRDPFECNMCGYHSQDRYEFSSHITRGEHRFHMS
Description: Western blot assay, IKZF1 neosubstrate degradation. The settings on record: MHH-CALL-4 cells, vehicle control = 100%. The method, then:
as §2

Assay [6] addresses T4, JAK1 (Homo sapiens, UniProt P23458).
T4 construct: endogenous in cells; host or cells: MHH-CALL-4
The assay is described as follows: Western blot assay, JAK1 protein degradation. The settings on record: MHH-CALL-4 cells, vehicle control = 100%. A digest of the protocol: as §1

Assay [7] addresses T5, GSPT1 (Homo sapiens, UniProt P15170).
T5 construct: endogenous in cells; host or cells: MHH-CALL-4
The assay is described as follows: Western blot assay, GSPT1 neosubstrate degradation. The settings on record: MHHCALL4; 100 nM, 24 h; MHH-CALL-4 cells; vehicle control = 100%. A digest of the protocol:
as §1

T5 sequence (P15170 whole entry): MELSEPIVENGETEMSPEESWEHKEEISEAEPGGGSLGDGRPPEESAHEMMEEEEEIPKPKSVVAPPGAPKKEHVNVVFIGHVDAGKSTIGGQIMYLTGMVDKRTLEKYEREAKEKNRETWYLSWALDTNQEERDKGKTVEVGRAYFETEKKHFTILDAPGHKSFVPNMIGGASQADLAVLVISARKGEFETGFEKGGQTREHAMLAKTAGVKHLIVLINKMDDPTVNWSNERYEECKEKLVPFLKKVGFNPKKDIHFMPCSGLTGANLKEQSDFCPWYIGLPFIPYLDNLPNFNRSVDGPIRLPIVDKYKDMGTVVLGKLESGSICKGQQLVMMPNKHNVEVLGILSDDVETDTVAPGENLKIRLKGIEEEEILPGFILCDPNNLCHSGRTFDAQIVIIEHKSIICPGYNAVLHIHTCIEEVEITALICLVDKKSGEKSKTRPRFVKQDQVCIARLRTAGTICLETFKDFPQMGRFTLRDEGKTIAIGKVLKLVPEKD
T4 sequence (P23458 whole entry): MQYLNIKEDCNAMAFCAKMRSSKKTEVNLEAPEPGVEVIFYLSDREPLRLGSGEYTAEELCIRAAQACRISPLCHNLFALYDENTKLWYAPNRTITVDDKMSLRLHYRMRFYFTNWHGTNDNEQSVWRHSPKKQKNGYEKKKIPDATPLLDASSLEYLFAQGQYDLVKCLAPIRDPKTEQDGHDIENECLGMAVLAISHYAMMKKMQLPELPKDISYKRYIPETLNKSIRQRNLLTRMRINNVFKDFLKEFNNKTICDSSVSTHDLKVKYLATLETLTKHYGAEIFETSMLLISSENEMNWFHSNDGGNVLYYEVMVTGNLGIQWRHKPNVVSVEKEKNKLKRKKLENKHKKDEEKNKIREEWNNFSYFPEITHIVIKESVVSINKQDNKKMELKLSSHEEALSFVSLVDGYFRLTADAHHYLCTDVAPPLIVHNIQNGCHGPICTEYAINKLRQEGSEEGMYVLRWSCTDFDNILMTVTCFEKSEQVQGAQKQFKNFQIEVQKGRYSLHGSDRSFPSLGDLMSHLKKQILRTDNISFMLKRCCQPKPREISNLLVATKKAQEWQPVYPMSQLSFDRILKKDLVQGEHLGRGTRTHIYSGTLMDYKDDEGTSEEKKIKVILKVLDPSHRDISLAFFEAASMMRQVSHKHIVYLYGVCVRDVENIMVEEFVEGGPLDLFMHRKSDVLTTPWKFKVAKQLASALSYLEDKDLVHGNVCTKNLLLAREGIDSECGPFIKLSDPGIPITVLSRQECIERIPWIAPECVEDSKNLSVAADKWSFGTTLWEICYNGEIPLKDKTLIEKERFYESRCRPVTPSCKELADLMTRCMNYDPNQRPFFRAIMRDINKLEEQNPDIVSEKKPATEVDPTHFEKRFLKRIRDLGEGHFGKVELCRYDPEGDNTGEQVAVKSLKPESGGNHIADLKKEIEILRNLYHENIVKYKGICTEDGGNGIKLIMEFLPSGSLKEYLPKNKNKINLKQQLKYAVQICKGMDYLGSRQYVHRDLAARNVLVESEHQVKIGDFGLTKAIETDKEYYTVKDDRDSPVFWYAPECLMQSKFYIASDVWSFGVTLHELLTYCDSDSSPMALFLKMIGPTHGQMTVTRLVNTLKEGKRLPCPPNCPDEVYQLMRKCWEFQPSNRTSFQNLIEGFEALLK

In general, EC50 refers to the midpoint of the concentration-response curve. For the compound `CCS(=O)(=O)N1CC(CC#N)(n2cc(-c3nc(Nc4ccc(C(=O)NCCCCOc5ccc(C6CCC(=O)NC6=O)cc5)cc4)nc4[nH]ccc34)cn2)C1` (stereo not drawn) [Compound 5], the “Target Protein Degradation (% remaining at 100 nM, 24 h) JAK2” value in assay [1] is given as 22 % remaining. In addition, in assay [2], the remaining activity at 0.1 µM worked out at 65%. The “Target Protein Degradation (% remaining at 100 nM, 24 h) TYK2” value in assay [3] stood at 142 % remaining. Besides, in assay [4], the EC50 is 2.2 nM and the AUC was 124. Further, the “Neosubstrate Degradation (% remaining at 100 nM, 24 h) IKZF1” value in assay [5] is listed as 79 % remaining. Besides, the “Target Protein Degradation (% remaining at 100 nM, 24 h) JAK1” value in assay [6] turned out to be 124 % remaining. For the same compound, in assay [7], the remaining activity at 0.1 µM worked out at 71%.

Consider `CCS(=O)(=O)N1CC(CC#N)(n2cc(-c3nc(Nc4ccc(C(=O)NCCN5CCN(c6ccc(C7CCC(=O)NC7=O)cc6)CC5)cc4)nc4[nH]ccc34)cn2)C1` (stereo not drawn) [Compound 37, 4-((4-(1-(3-(cyanomethyl)-1-(ethylsulfonyl)azetidin-3-yl)-1H-pyrazol-4-yl)-7H-pyrrolo[2,3-d]pyrimidin-2-yl)amino)-N-(2-(4-(4-(2,6-dioxopiperidin-3-yl)phenyl)piperazin-1-yl)ethyl)benzamide], for which, in assay [1], the “Target Protein Degradation (% remaining at 100 nM, 24 h) JAK2” value stood at 26 % remaining. The remaining activity at 0.1 µM in assay [2] amounted to 58%. The “Target Protein Degradation (% remaining at 100 nM, 24 h) TYK2” value in assay [3] worked out at 121 % remaining. In assay [4], the EC50 came out at 2.7 nM and the AUC stood at 149. Moreover, the “Target Protein Degradation (% remaining at 100 nM, 24 h) JAK1” value in assay [6] was 120 % remaining.

As to `CCS(=O)(=O)N1CC(CC#N)(n2cc(-c3nc(Nc4ccc(C(=O)NCCCCOc5cccc(C6CCC(=O)NC6=O)c5)cc4)nc4[nH]ccc34)cn2)C1` (stereo not drawn) [Compound 41, 4-((4-(1-(3-(cyanomethyl)-1-(ethylsulfonyl)azetidin-3-yl)-1H-pyrazol-4-yl)-7H-pyrrolo[2,3-d]pyrimidin-2-yl)amino)-N-(4-(3-(2,6-dioxopiperidin-3-yl)phenoxy)butyl)benzamide], the “Target Protein Degradation (% remaining at 100 nM, 24 h) JAK2” value in assay [1] was 28 % remaining. Moreover, the remaining activity at 0.1 µM in assay [2] worked out at 46%. In addition, the “Target Protein Degradation (% remaining at 100 nM, 24 h) TYK2” value in assay [3] worked out at 125 % remaining. In assay [4], the EC50 amounted to 51.2 nM and the AUC turned out to be 202. For the same compound, the “Target Protein Degradation (% remaining at 100 nM, 24 h) JAK1” value in assay [6] came out at 97 % remaining.

For `CCS(=O)(=O)N1CC(CC#N)(n2cc(-c3nc(Nc4ccc(C(=O)NC5CCN(c6ccc(C7CCC(=O)NC7=O)cc6)CC5)cc4)nc4[nH]ccc34)cn2)C1` (stereo not drawn) [Compound 46, 4-((4-(1-(3-(cyanomethyl)-1-(ethylsulfonyl)azetidin-3-yl)-1H-pyrazol-4-yl)-7H-pyrrolo[2,3-d]pyrimidin-2-yl)amino)-N-(1-(4-(2,6-dioxopiperidin-3-yl)phenyl)piperidin-4-yl)benzamide], the “Target Protein Degradation (% remaining at 100 nM, 24 h) JAK2” value in assay [1] stood at 20 % remaining. The “Target Protein Degradation (% remaining at 100 nM, 24 h) TYK2” value in assay [3] turned out to be 119 % remaining. The EC50 in assay [4] turned out to be 9.25 nM. The “Target Protein Degradation (% remaining at 100 nM, 24 h) JAK1” value in assay [6] is listed as 98 % remaining.

For `CCS(=O)(=O)N1CC(CC#N)(n2cc(-c3nc(Nc4ccc(C(=O)NCCCCOc5ccc(C6CCC(=O)N(C)C6=O)cc5)cc4)nc4[nH]ccc34)cn2)C1` (stereo not drawn) [Compound 47, 4-((4-(1-(3-(cyanomethyl)-1-(ethylsulfonyl)azetidin-3-yl)-1H-pyrazol-4-yl)-7H-pyrrolo[2,3-d]pyrimidin-2-yl)amino)-N-(4-(4-(1-methyl-2,6-dioxopiperidin-3-yl)phenoxy)butyl)benzamide], the “Target Protein Degradation (% remaining at 100 nM, 24 h) JAK2” value in assay [1] worked out at 128 % remaining. For the same compound, the remaining activity at 0.1 µM in assay [2] worked out at 101%; in assay [7] it was 86%. Also, the “Target Protein Degradation (% remaining at 100 nM, 24 h) TYK2” value in assay [3] was 89 % remaining. Further, in assay [4], the EC50 is 3.35 nM. Also, the “Target Protein Degradation (% remaining at 100 nM, 24 h) JAK1” value in assay [6] was 114 % remaining.

As to `CCS(=O)(=O)N1CC(CC#N)(n2cc(-c3nc(Nc4ccc(C(=O)N5CCC6(CC5)CCN(c5ccc(C7CCC(=O)NC7=O)cc5)CC6)cc4)nc4[nH]ccc34)cn2)C1` (stereo not drawn) [Compound 50, 2-(3-(4-(2-((4-(9-(4-(2,6-dioxopiperidin-3-yl)phenyl)-3,9-diazaspiro[5.5]undecane-3-carbonyl)phenyl)amino)-7H-pyrrolo[2,3-d]pyrimidin-4-yl)-1H-pyrazol-1-yl)-1-(ethylsulfonyl)azetidin-3-yl)acetonitrile], in assay [1], the “Target Protein Degradation (% remaining at 100 nM, 24 h) JAK2” value worked out at 11 % remaining. For the same compound, the remaining activity at 0.1 µM in assay [2] came out at 28%. Moreover, in assay [4], the EC50 was determined as 9 nM and the AUC is 202. For the same compound, in assay [6], the “Target Protein Degradation (% remaining at 100 nM, 24 h) JAK1” value is 85 % remaining. Also, in assay [7], the remaining activity at 0.1 µM was 137%.

Take `CCS(=O)(=O)N1CC(CC#N)(n2cc(-c3nc(Nc4ccc(C(=O)N5CCC6(CCN(c7ccc(C8CCC(=O)NC8=O)cc7)CC6)C5)cc4)nc4[nH]ccc34)cn2)C1` (stereo not drawn) [Compound 52, 2-(3-(4-(2-((4-(8-(4-(2,6-dioxopiperidin-3-yl)phenyl)-2,8-diazaspiro[4.5]decane-2-carbonyl)phenyl)amino)-7H-pyrrolo[2,3-d]pyrimidin-4-yl)-1H-pyrazol-1-yl)-1-(ethylsulfonyl)azetidin-3-yl)acetonitrile]: the “Target Protein Degradation (% remaining at 100 nM, 24 h) JAK2” value in assay [1] was 16 % remaining. Besides, the remaining activity at 0.1 µM in assay [2] turned out to be 27%; in assay [7], 72%. For the same compound, in assay [4], the EC50 was 9 nM. In addition, the AUC in assay [4] was found to be 180. Moreover, the “Target Protein Degradation (% remaining at 100 nM, 24 h) JAK1” value in assay [6] is recorded as 126 % remaining.

As to `CCS(=O)(=O)N1CC(CC#N)(n2cc(-c3nc(Nc4ccc(C(=O)NCCCN5CC6CCC(C5)N6c5ccc(C6CCC(=O)NC6=O)cc5)cc4)nc4[nH]ccc34)cn2)C1` (stereo not drawn) [Compound 55, 4-((4-(1-(3-(cyanomethyl)-1-(ethylsulfonyl)azetidin-3-yl)-1H-pyrazol-4-yl)-7H-pyrrolo[2,3-d]pyrimidin-2-yl)amino)-N-(3-(8-(4-(2,6-dioxopiperidin-3-yl)phenyl)-3,8-diazabicyclo[3.2.1]octan-3-yl)propyl)benzamide], the “Target Protein Degradation (% remaining at 100 nM, 24 h) JAK2” value in assay [1] is recorded as 19 % remaining. Further, the remaining activity at 0.1 µM in assay [2] was determined as 44%. Further, in assay [4], the EC50 came to 596 nM and the AUC turned out to be 149. In addition, the “Target Protein Degradation (% remaining at 100 nM, 24 h) JAK1” value in assay [6] was 113 % remaining. Further, in assay [7], the remaining activity at 0.1 µM worked out at 75%.
